According to US10736897B2, “Compounds and methods of use thereof for treatment of cancer” (Araxes Pharma LLC, priority 2017, dated 2020):

What follows are molecules tested against T1, KRAS G12C 1-169, his-tagged protein, GDP-loaded (Homo sapiens, UniProt P01116, G12C) (assay: Biochemical assay: covalent modification of KRAS G12C measured by mass spectrometry (RapidFire/TOF or Q-Exactive)). Conditions: Modification Activity; modification percentage from deconvoluted MS peak intensities; compound concentration and incubation time for Table 2 not stated.
T1 construct: KRAS G12C 1-169, his-tagged protein, GDP-loaded; His tag
Assay type: binding
Protocol: Test compounds are prepared as 10 mM stock solutions in DMSO (Fisher cat # BP-231-100). KRAS G12C 1-169, his-tagged protein, GDP-loaded is diluted to 2 μM or 0.5 μM in buffer (20 mM Hepes, 150 mM NaCl, 1 mM MgCl2). Compounds are tested for activity as follows:
Compounds are diluted to 50× final test concentration in DMSO in 96-well storage plates. Compound stock solutions are vortexed before use and observed carefully for any sign of precipitation. Dilutions are as follow: • For 100 μM final compound concentration, compounds are diluted to 5000 μM (5 μL 10 mM compound stock+5 μL DMSO and mixed well by pipetting. • For 30 μM final compound concentration, compounds are diluted to 1500 μM (3 μL 10 mM compound stock+17 μL DMSO) and mixed well by pipetting. • For 10 μM final compound concentration, compounds are diluted to 500 μM (2 μL 10 mM compound stock+38 μL DMSO) and mixed well by pipetting. 49 μL of the stock protein solution is added to each well of a 96-well PCR plate (Fisher cat #1423027). 1 μl of the diluted 50× compounds are added to appropriate wells in the PCR plate using 12-channel pipettor. Reactions are mixed carefully and thoroughly by pipetting up/down with a 200 μL multi-channel pipettor. The plate is sealed well with aluminum plate seal, and stored in drawer at room temperature for 10 minutes, 30 minutes, 2 hours or 24 hours. 5 μL of 2% formic acid (Fisher cat # A117) in de-ionized H2O is then added to each well followed by mixing with a pipette. The plate is then resealed with aluminum seal and stored on dry ice until analyzed as described below.
The above described assays are analyzed by mass spectrometry according to one of the following two procedures:
The MS instrument is set to positive polarity, 2 GHz resolution, and low mass (1700) mode and allowed to equilibrate for 30 minutes. The instrument is then calibrated, switched to acquisition mode and the appropriate method loaded.
After another 30 minute equilibration time, a blank batch (i.e., buffer) is run to ensure equipment is operating properly. The samples are thawed at 37° C. for 10 minutes, briefly centrifuged, and transfer to the bench top. Wells A1 and H12 are spiked with 1 μL 500 μM internal standard peptide, and the plates centrifuged at 2000×g for 5 minutes. The method is then run and masses of each individual well recorded.
The masses (for which integration data is desired) for each well are pasted into the platemap and exported from the analysis. Masses for the internal standards are exported as well. The data at 50 ppm is extracted for the +19 charge state, and identity of well A1 is assigned using the internal standard spike and integrated. Peak data is exported as a TOF list and the above steps are repeated individually, for the +20, 21, 22, 23, 24, and 25 charge states.
The masses and peak intensities of KRAS G12C protein species are measured using a Dionex RSLCnano system (Thermo Scientific) connected to a Q Exactive Plus mass spectrometer (Thermo Scientific).
[…] of sample is each loaded onto a Aeris™ 3.6 μm WIDEPORE C4 200 Å, LC Column 50×2.1 mm column maintained at 40° C. at a flow rate of 600 μL/min with […] (0.1% formic acid in acetonitrile). The liquid chromatography conditions are 20% solvent B for 1 minute, 20% to 60% solvent B for 1.5 minutes, 60% to 90% solvent for 0.5 minute, 90% solvent B for 0.2 minute, 90% to 20% solvent B for 0.2 minute, and then equilibrated for 1.6 minute before the following sample injection. The flow rate is maintained at 600 μL/min throughout the sample analysis.
The mass spectrometer is operated in profile mode at a resolution of 17500, 5 microscans, using 50 msec max injection time and an AGC target of 1×10^6, and a full mass range from 800-1850 m/z is recorded. The HCD trapping gas is optimized for maximum sensitivity for intact proteins. […]
For `C=CC(=O)N1CCN(c2c(C#N)cnc3c(F)c(-c4c(C)ccc5[nH]nc(C6CC6)c45)c(Cl)cc23)CC1` [Compound 13, 4-(4-acryloylpiperazin-1-yl)-6-chloro-7-(3-cyclopropyl-5-methyl-1H-indazol-4-yl)-8-fluoroquinoline-3-carbonitrile], the Binding % was “+++ (+++ indicates binding activity greater than 85%)”.
With `C=CC(=O)N1[C@H](C)CN(c2c(C#N)cnc3c(F)c(-c4c(C)ccc5cnn(C)c45)c(Cl)cc23)C[C@@H]1C` [Compound 22, 4-((3S,5R)-4-acryloyl-3,5-dimethylpiperazin-1-yl)-6-chloro-7-(1,6-dimethyl-1H-indazol-7-yl)-8-fluoroquinoline-3-carbonitrile] the Binding % was “++ (++ indicates binding activity from 50 to 85%)”.
`C=CC(=O)N1CCN(c2c(C#N)cnc3c(F)c(-c4c(C)ccc5cnn(C6CC6)c45)c(Cl)cc23)CC1` [Compound 14, 4-(4-acryloylpiperazin-1-yl)-6-chloro-7-(1-cyclopropyl-6-methyl-1H-indazol-7-yl)-8-fluoroquinoline-3-carbonitrile] was tested, and the Binding % was “+++ (+++ indicates binding activity greater than 85%)”.
With `C=CC(=O)N1CCN(c2cc(C(F)(F)F)nc3c(F)c(-c4c(C)ccc5[nH]nc(C)c45)c(Cl)cc23)CC1` [Compound 25, 1-(4-(6-chloro-7-(3,5-dimethyl-1H-indazol-4-yl)-8-fluoro-2-(trifluoromethyl)quino-lin-4-yl)piperazin-1-yl)prop-2-en-1-one] the Binding % was “+ (+ indicates binding activity greater than 0% and up to 50%)”.
`C=CC(=O)N1CCN(c2c(C#N)cnc3c(F)c(-c4c(C)ccc5cnn(C)c45)c(Cl)cc23)CC1` [Compound 11, 4-(4-acryloylpiperazin-1-yl)-6-chloro-7-(1,6-dimethyl-1H-indazol-7-yl)-8-fluoroquinoline-3-carbonitrile] was tested, and the Binding % was “+++ (+++ indicates binding activity greater than 85%)”.
With `C=CC(=O)N1CCN(c2cc(C#N)nc3c(F)c(-c4c(C)ccc5[nH]nc(C)c45)c(Cl)cc23)CC1` [Compound 29, 4-(4-acryloylpiperazin-1-yl)-6-chloro-7-(3,5-dimethyl-1H-indazol-4-yl)-8-fluoroquinoline-2-carbontrile] the Binding % was “++ (++ indicates binding activity from 50 to 85%)”.
For `C=CC(=O)N1C[C@H](C)N(c2c(C#N)cnc3c(F)c(-c4c(C)ccc5[nH]nc(C)c45)c(Cl)cc23)C[C@H]1C` [Compound 21, 4-((2S,5R)-4-acryloyl-2,5-dimethylpiperazin-1-yl)-6-chloro-7-(3,5-dimethyl-1H-indazol-4-yl)-8-fluoroquinoline-3-carbonitrile], the Binding % was “+ (+ indicates binding activity greater than 0% and up to 50%)”.
For `C=CC(=O)N1CCN(c2cc(C#N)nc3c(F)c(-c4c(C)ccc5cnn(C)c45)c(Cl)cc23)CC1` [Compound 28, 4-(4-acryloylpiperazin-1-yl)-6-chloro-7-(1,6-dimethyl-1H-indazol-7-yl)-8-fluoroquinoline-2-carbonitrile], the Binding % was “+++ (+++ indicates binding activity greater than 85%)”.
